Calls of active or inactive are those of the source. The calls are words filed in the database; no cut-off is given here.
Assays:
Vero = assay: Cytotoxicity against African green monkey Vero cells at 1 uM after 3 days by haemocytometer analysis; format: cell-based; conditions: chlorocebus sabaeus, 72 h
[1] = Antiviral activity against HSV1 CL-101 infected in African green monkey Vero cells assessed as reduction of viral titer at 50 uM after 40 hrs; format: functional, Herpes simplex virus (type 1 / strain CL101)
Sarcoma-180 = assay: Cytotoxicity against mouse Sarcoma 180 cells after 1 to 3 days by coulter counter analysis; format: functional, cell-based
[2] = Antiviral activity against HSV1 CL-101 infected in African green monkey Vero cells assessed as reduction of viral titer at 200 uM after 40 hrs; format: functional, Herpes simplex virus (type 1 / strain CL101)
[3] = Therapeutic index, ratio of cytotoxicity against African green monkey Vero cells to antiviral activity against HSV1 CL-101; format: cell-based; conditions: read-out: TI

Compound	Activity (Vero)	Activity [1]	Activity (Sarcoma-180)	Activity [2]	selectivity ratio [3]
O=c1[nH]c(=O)n([C@H]2C[C@H](O)[C@@H](CO)O2)cc1C(F)(F)F [TRIFLURIDINE]	Toxic	1.5 ×10⁵ PFU	Active		
[N-]=[N+]=NC[C@H]1O[C@@H](n2cc(C(F)(F)F)c(=O)[nH]c2=O)C[C@@H]1O			Active	1.7 ×10⁶ PFU	
NC[C@H]1O[C@@H](n2cc(C(F)(F)F)c(=O)[nH]c2=O)C[C@@H]1O			Active	1 ×10⁵ PFU	10

— ChEMBL document CHEMBL3271973, “Synthesis and biological activities of 5-trifluoromethyl-5'-azido-2',5'-dideoxyuridine and 5-trifluoromethyl-5'-amino-2',5'-dideoxyuridine” (J Med Chem, 1976)
